{"source": "patent US6852722B2", "about": "“Compositions and methods for stimulating gastrointestinal mobility” (Pfizer Inc., priority 2000, dated 2005)", "test_system": "Male CD Sprague-Dawley rats", "experiment": "Gastrointestinal transit in rats (51Cr marker: gastric emptying and geometric center)", "assay_type": "in vivo, rat", "conditions": "for effect on gastrointestinal transit: 0.1 mg/kg oral; for % Gastric Emptying: 51Cr marker 15 min after dose, killed 20 min later; for % Gastric Emptying / Geometric Center: mean ± SEM; for Geometric Center: stomach = segment 0, intestine segments 1-10; for increase in gastric emptying / increase in geometric center (transit through stomach and small intestine): relative to vehicle", "protocol": "Male CD Sprague-Dawley rats (175-225 grams) are fitted with tail cups to prevent coprophagy and fasted overnight. The next day the rats are orally given either vehicle (water, 5 ml/kg) or a solution of the test compound in water at doses of 0.1, 0.5, 1 or 5 mg/kg p.o. Fifteen minutes later, the rats are given 1.0 ml of an evaporated milk solution containing 20,000 cpm of ^51Cr as sodium chromate.\nThe rats are killed 20 minutes after administration of the radioactive marker. The gastroesophageal, pyloric, and ileocecal junctions are ligated, the stomach is removed and the small intestine is divided into ten equal lengths. The stomach and each length of intestine are assayed for radioactivity with a gamma counter. Gastric emptying is determined for each rat by comparing the amount of radioactivity in the intestine relative to the total in the intestine plus stomach. In addition, the geometric center of the distribution of the radioactive marker is used to measure the overall transit rate through the stomach and intestine. Geometric center is calculated as: Σ((fraction of ^51Cr per segment)×(segment number)). For these calculations the stomach is segment number 0 while the ten intestinal segments are designated 1 to 10. Thus, a geometric center of 0.0 would indicate that the entire load of ^51Cr had remained in the stomach.\nResults from test compound-treated rats and vehicle-treated rats are compared using one-way ANOVA and Dunnett's test for simultaneous multiple comparisons. The effect of the test compound on gastrointestinal transit in rats is evaluated by measuring gastric emptying and the geometric center of distribution of an orally administered radioactive marker.", "data": [{"smiles": "CN1N=C2CCN(C(=O)[C@@H](COCc3ccccc3)NC(=O)C(C)(C)N)C[C@@]2(Cc2ccccc2)C1=O", "note": "[first test compound, 2-amino-N-(2-(3a-(R)-benzyl-2-methyl-3-oxo-2,3,3a,4,6,7-hexahydro-pyrazolo-[4,3-c]pyridin-5-yl)-1-(R)-benzyloxymethyl-2-oxo-ethyl)-isobutyramide]", "values": [{"measurement": "effect on gastrointestinal transit", "result": "no effect"}, {"measurement": "% Gastric Emptying", "setting": "0.1 mg/kg p.o.", "result": "62.5 ± 3.4", "unit": "%"}, {"measurement": "Geometric Center", "setting": "0.1 mg/kg p.o.", "result": "2.82 ± 0.17"}, {"measurement": "increase in gastric emptying", "setting": "0.5 mg/kg oral", "result": 25, "unit": "%"}, {"measurement": "increase in geometric center (transit through stomach and small intestine)", "setting": "0.5 mg/kg oral", "result": 39, "unit": "%"}, {"measurement": "% Gastric Emptying", "setting": "0.5 mg/kg p.o.", "result": "*79.0 ± 4.2%"}, {"measurement": "Geometric Center", "setting": "0.5 mg/kg p.o.", "result": "*4.03 ± 0.26"}, {"measurement": "increase in geometric center (transit through stomach and small intestine)", "setting": "1 mg/kg oral", "result": 67, "unit": "%"}, {"measurement": "increase in gastric emptying", "setting": "1.0 mg/kg oral", "result": 45, "unit": "%"}, {"measurement": "% Gastric Emptying", "setting": "1 mg/kg p.o.", "result": 92, "unit": "%"}, {"measurement": "% Gastric Emptying", "setting": "1 mg/kg p.o., listed as 1st test compound", "result": "*91.5 ± 1.6%"}, {"measurement": "Geometric Center", "setting": "1 mg/kg p.o.", "result": "*4.81 ± 0.21"}, {"measurement": "increase in geometric center (transit through stomach and small intestine)", "setting": "5 mg/kg oral", "result": 68, "unit": "%"}, {"measurement": "increase in gastric emptying", "setting": "5.0 mg/kg oral", "result": 49, "unit": "%"}, {"measurement": "% Gastric Emptying", "setting": "5 mg/kg p.o.", "result": 94, "unit": "%"}, {"measurement": "% Gastric Emptying", "setting": "5 mg/kg p.o., listed as 1st test compound", "result": "*93.7 ± 1.4%"}, {"measurement": "Geometric Center", "setting": "5 mg/kg p.o.", "result": "*4.85 ± 0.19"}]}, {"smiles": "CC(C)(N)C(=O)N[C@H](COCc1ccc(F)cc1F)C(=O)N1CCC2=NN(CC(F)(F)F)C(=O)[C@]2(Cc2ccccn2)C1", "note": "[second test compound]", "values": [{"measurement": "effect on gastrointestinal transit", "result": "no effect"}, {"measurement": "% Gastric Emptying", "setting": "0.1 mg/kg p.o.", "result": "68.9 ± 3.4", "unit": "%"}, {"measurement": "Geometric Center", "setting": "0.1 mg/kg p.o.", "result": "3.1 ± 0.2"}, {"measurement": "increase in gastric emptying", "setting": "0.5 mg/kg oral", "result": 21, "unit": "%"}, {"measurement": "increase in geometric center (transit through stomach and small intestine)", "setting": "0.5 mg/kg oral", "result": 37, "unit": "%"}, {"measurement": "% Gastric Emptying", "setting": "0.5 mg/kg p.o.", "result": "*79.5 ± 3.6%"}, {"measurement": "Geometric Center", "setting": "0.5 mg/kg p.o.", "result": "*3.9 ± 0.3"}, {"measurement": "increase in geometric center (transit through stomach and small intestine)", "setting": "1 mg/kg oral", "result": 50, "unit": "%"}, {"measurement": "increase in gastric emptying", "setting": "1.0 mg/kg oral", "result": 37, "unit": "%"}, {"measurement": "% Gastric Emptying", "setting": "1 mg/kg p.o.", "result": "*89.9 ± 2.3%"}, {"measurement": "Geometric Center", "setting": "1 mg/kg p.o.", "result": "*4.3 ± 0.2"}, {"measurement": "increase in geometric center (transit through stomach and small intestine)", "setting": "5 mg/kg oral", "result": 42, "unit": "%"}, {"measurement": "increase in gastric emptying", "setting": "5.0 mg/kg oral", "result": 34, "unit": "%"}, {"measurement": "% Gastric Emptying", "setting": "5 mg/kg p.o.", "result": "*88.3 ± 2.4%"}, {"measurement": "Geometric Center", "setting": "5 mg/kg p.o.", "result": "*4.1 ± 0.2"}, {"measurement": "gastric emptying and transport through the upper GI tract", "setting": "doses of 0.5, 1 and 5 mg/kg oral", "result": "increased"}]}]}
